Data on seven compounds can be found in ChEMBL document CHEMBL1152096 (Bioorg Med Chem Lett, 1992).

For experiment [1], the species on record is Cavia porcellus. The experiment in a line: Evaluated for the percent efficacy in guinea pig ileum contraction model. Format: functional.
The species named for experiment [2] is Rattus norvegicus. Briefly: Evaluated for the muscarinic potency in depolarizations of rat superior cervical ganglion. Format: functional.
Experiment [3] is filed under the species Rattus norvegicus. Briefly: Evaluated for the muscarinic potency in rat hippocampal slice preparations. Format: functional, Hippocampus.
Experiment [4] addresses T1, Muscarinic acetylcholine receptor M1 (Rattus norvegicus, UniProt P08482).
T1 sequence (P08482 whole entry): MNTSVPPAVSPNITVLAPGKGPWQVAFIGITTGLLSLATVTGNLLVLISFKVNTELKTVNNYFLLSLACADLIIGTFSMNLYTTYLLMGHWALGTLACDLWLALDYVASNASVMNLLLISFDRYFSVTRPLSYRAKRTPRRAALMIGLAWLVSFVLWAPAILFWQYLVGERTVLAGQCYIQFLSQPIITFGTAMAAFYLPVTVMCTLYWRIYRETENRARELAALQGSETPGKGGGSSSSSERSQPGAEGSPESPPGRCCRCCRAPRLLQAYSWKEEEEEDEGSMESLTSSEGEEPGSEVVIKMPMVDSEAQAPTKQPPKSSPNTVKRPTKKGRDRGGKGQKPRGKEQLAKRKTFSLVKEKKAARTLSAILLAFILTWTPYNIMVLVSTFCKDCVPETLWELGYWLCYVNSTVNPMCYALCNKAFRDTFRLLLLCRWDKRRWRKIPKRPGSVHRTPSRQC
The experiment in a line: Evaluated for inhibition of binding of [3H]pirenzepine to homogenized rat cerebral cortex membranes. Format: cell membranes, Membrane.

The species named for experiment [5] is Cavia porcellus. Briefly: Evaluated for the muscarinic potency in guinea pig ileum contraction model. Format: functional.
The species entered for experiment [6] is Rattus norvegicus. Briefly: Evaluated for the muscarinic potency in rat superior cervical ganglion. Format: functional.
The species named for experiment [7] is Rattus norvegicus. The experiment in a line: Evaluated for the percentage efficacy in rat superior cervical ganglion. Format: functional.
The species named for experiment [8] is Rattus norvegicus. Briefly: Evaluated for the percentage efficacy in rat hippocampal slice preparations. Format: functional, Hippocampus.
The species named for experiment [9] is Rattus norvegicus. Briefly: Evaluated for the percentage efficacy in depolarizations of rat superior cervical ganglion. Format: functional.

As a reminder, the IC50 is the concentration that gives 50% inhibition. Lower therefore signals greater potency in that assay.

Some results are limits rather than exact numbers.

For the compound `COC(=O)[C@H]1C[C@@H]2CN[C@H]1C2`, the Efficacy in the experiment filed under Cavia porcellus [1] was found to be 94%; in the experiment filed under Rattus norvegicus [2], 47%. In addition, the results for the pD2 in the experiment listed under Rattus norvegicus [2], in the experiment listed under Rattus norvegicus [3] and in the experiment filed under Cavia porcellus [5] were 5.2, less than 4 and 5.2, respectively. This compound also showed an IC50 in experiment [4] of 2570 nM.
Consider `COC(=O)[C@H]1C[C@H]2C[C@@H]1N(C)C2`, for which the Efficacy in the experiment listed under Cavia porcellus [1] amounted to 68%; in the experiment listed under Rattus norvegicus [7], 71%. The pD2 is given as 5.9 in the experiment filed under Rattus norvegicus [6], less than 4 in the experiment filed under Rattus norvegicus [3] and 4.9 in the experiment filed under Cavia porcellus [5]. The compound also showed a 50% inhibitory concentration (IC50) in experiment [4] of 1910 nM.
In the case of `COC(=O)[C@@H]1C[C@@H]2C[C@H]1N(C)C2`, the Efficacy is listed as 70% in the experiment filed under Rattus norvegicus [2] and 33% in the experiment listed under Rattus norvegicus [8]. Also, the pD2 in the experiment listed under Rattus norvegicus [2] was 4.4; in the experiment listed under Rattus norvegicus [3], 5.9; in the experiment filed under Cavia porcellus [5] it was less than 4. The compound also showed an IC50 in experiment [4] of 3890 nM.
As for `COC(=O)[C@@H]1C[C@H]2CN[C@@H]1C2`, the Efficacy in the experiment filed under Cavia porcellus [1] amounted to 120%; in the experiment listed under Rattus norvegicus [2], 90%; in the experiment filed under Rattus norvegicus [8], 120%. For the same compound, the pD2 in the experiment filed under Rattus norvegicus [2] was 6.7; in the experiment filed under Rattus norvegicus [3], 6; in the experiment listed under Cavia porcellus [5], 6. In experiment [4], this compound gave a half-inhibitory concentration (IC50) of 1410 nM.
Regarding `COC(=O)C1CC2CNC1C2` (racemic), the Efficacy is given as 91% in the experiment listed under Cavia porcellus [1], 57% in the experiment listed under Rattus norvegicus [2] and 103% in the experiment filed under Rattus norvegicus [8]. Besides, the results for the pD2 in the experiment listed under Rattus norvegicus [2], in the experiment filed under Rattus norvegicus [3] and in the experiment filed under Cavia porcellus [5] were 6.3, 5.5 and 6.2, respectively. In [4], this compound gave an IC50 of 1950 nM.
As for `COC(=O)C1CC2CC1N(C)C2` (racemic), the Efficacy was 58% in the experiment filed under Cavia porcellus [1], 82% in the experiment listed under Rattus norvegicus [2] and 39% in the experiment filed under Rattus norvegicus [8]. In addition, the pD2 is 5 in the experiment listed under Rattus norvegicus [2], 5.4 in the experiment listed under Rattus norvegicus [3] and 4.2 in the experiment listed under Cavia porcellus [5]. For the same compound, in experiment [4], the IC50 is 2820 nM.
For `COC(=O)C1=CCCN(C)C1` [ARECOLINE], the values for the Efficacy in the experiment filed under Cavia porcellus [1], in the experiment filed under Rattus norvegicus [8] and in the experiment listed under Rattus norvegicus [9] were 100%, 100% and 80%, respectively. Further, the pD2 in the experiment filed under Rattus norvegicus [2] was found to be 6.6; in the experiment listed under Rattus norvegicus [3], 6.1; in the experiment filed under Cavia porcellus [5] it was 6.5.
